Laboratory results from patent US10576102B2, “KOC1-derived peptide and vaccine including same” (ONCOTHERAPY SCIENCE, INC., priority 2014, dated 2020).
Entries after “also recorded” stand apart in the source; their conditions may differ.

Assays:
peptide-pulsed C1R-A03 [1] = assay: IFN-gamma ELISA of CTL line and CTL clone (HLA-A*0301); format: cell-based, human
Method: CTLs were propagated in culture using methods similar to those disclosed by Riddell et al. (Walter E A et al., N Engl J Med 1995, 333(16): 1038-44; Riddell S R et al., Nat Med 1996, 2(2): 216-23). The CTLs were co-cultured in a total of 25 ml AIM-V medium containing 5% AS (AIM-V/5% AS) and 40 ng/ml anti-CD3 antibody with two types of Mitomycin C-treated human B lymphoblastoid cell lines at 5×10^6 cells/flask. One day after beginning of the culturing, 120 IU/ml IL-2 was added to the culture. On days 5, 8 and 11, a fresh AIM-V/5% AS medium containing 30 IU/ml IL-2 was added to the culture (Tanaka H et al., Br J Cancer 2001, 84(1): 94-9; Umano Y et al., Br J Cancer 2001, 84(8): 1052-7; Uchida N et al., Clin Cancer Res 2004, 10(24): 8577-86; Suda T et al., Cancer Sci 2006, 97(5): 411-9; Watanabe T et al., Cancer Sci 2005, 96(8): 498-506).
Dilution of CTLs was carried out to make 0.3, 1 and 3 cells/well in 96 round-bottomed microtiter plates (Nalge Nunc International). The CTLs were co-cultured with two types of Mitomycin C-treated human B lymphoblastoid cell lines at 1×10^4 cells/well in a total of 150 micro-1/well AIM-V/5% AS medium with 30 ng/ml anti-CD3 antibody and 125 IU/ml IL-2. Ten days later, IL-2 was added to the medium at 50 micro-1/well to reach a final concentration of 125 IU/ml. […]

peptide-pulsed C1R-A03 [2] = assay: In vitro CTL induction, IFN-gamma ELISPOT assay (HLA-A*0301); format: cell-based, human; details: CTLs induced with peptide-pulsed DCs from HLA-A*0301-positive volunteers; day 21; vs peptide-pulsed C1R-A03, compared with unpulsed control
Method: C1R (C1R-A03) that stably expresses HLA-A*0301 was used as a stimulator cell. A cDNA encoding the open-reading frame of HLA-A*0301 was amplified by PCR and cloned into an expression vector. C1R cells were transfected with the expression vector, and then selected using G418 (Invitrogen) for two weeks. The G418-selected cells were seeded into wells containing G418-added culture medium in a 96-well plate, and further cultured for 30 days. The exogenous HLA-A*0301 expression in C1R cells was verified by flow cytometric analysis.
Monocyte-derived dendritic cells (DCs) were used as the antigen-presenting cell to induce a cytotoxic T lymphocyte (CTL) response against peptides presented on human leukocyte antigens (HLAs). As described in the other sections, DCs were generated in vitro (Nakahara S et al., Cancer Res 2003, 63(14): 4112-8). Specifically, peripheral-blood mononuclear cells isolated from healthy volunteers (HLA-A*0301-positive) with the Ficoll-Paque plus solution (Pharmacia) were separated by attaching to plastic tissue culture dishes (Becton Dickinson) and concentrated as a monocyte fraction. The monocyte-concentrated population was cultured in the presence of 1000 IU/ml granulocyte macrophage colony-stimulating factor (R&D System) and 1000 IU/ml interleukin(IL)-4 (R&D System) in an AIM-V medium (Invitrogen) containing 2% heat-inactivated autologous serum (AS). After seven days of culturing, the cytokine-induced DCs were pulsed with 20 micro-g/ml each of the synthesized peptides in an AIM-V medium at 37 degrees C. for three hours in the presence of 3 micro-g/ml beta 2-microglobulin. The generated cells appeared to express on their cell surface DC-associated molecules such as CD80, CD83, CD86 and HLA class II (data not shown). Next, these peptide-pulsed DCs were inactivated by X-ray irradiation (20 Gy), and mixed in a 1:20 ratio with autologous CD8^+ T cells obtained by positive selection using the CD8 Positive Isolation Kit (Dynal). These culture products were seeded in a 48-well plate (Corning). Each well was made to contain 1.5×10^4 peptide-pulsed DCs, 3×10^5 CD8^+ T cells and 10 ng/ml IL-7 (R&D System) in 0.5 ml of the AIM-V/2% AS medium. Three days later, these culture products were added with a final concentration of 20 IU/ml IL-2 (CHIRON). On day 7 and day 14, T cells were further stimulated with peptide-pulsed autologous DCs. The DCs were prepared every time by the same method as above. […]

[3] = tested on: COS7 cells transfected with both KOC1 and HLA-A*0301; assay: Specific CTL activity against target cells expressing KOC1 and HLA-A*0301; format: cell-based, African green monkey; details: listed as KOC1-A03-10-120
Method: Specifically, peptide-pulsed C1R-A03 (1×10^4 cells/well) was prepared as the stimulator cell. The induced CTLs, i.e., CTL lines and CTL clones, were used as the responder cell. The IFN-gamma ELISPOT assay and IFN-gamma ELISA were performed according to the manufacturer's manual.
A cDNA encoding the open-reading frame of a target gene or HLA-A*0301 was amplified by PCR. The PCR-amplified product was cloned into an expression vector. Either or both of the target gene-expressing vector and the HLA-A*0301-expressing vector were transfected into […], which is a cell line negative for the target gene and HLA, using Lipofectamine 2000 (Invitrogen) following the manufacturer's recommended protocol. Two days after transfection, the transfected cells were harvested using versene (Invitrogen), and used as the target cell for CTL activity assay (5×10^4 cells/well).
The CTL clone established against KOC1-A03-10-120 (SEQ ID NO: 27) was investigated for their ability to recognize target cells expressing KOC1 and the HLA-A*0301 molecule. COS7 cells transfected with both full-length KOC1 and the HLA-A*0301 gene (a specific model of target cells expressing KOC1 and the HLA-A*0301 gene) were prepared as the target cell. COS7 cells transfected with either full-length KOC1 or HLA-A*0301 were prepared as the control.

Q: What does the source list for “AVVNVTYSSK (a peptide derived from KOC1) [SEQ ID NO: 27]”?
A: IFN-gamma production of CTL clone, ELISA (peptide-pulsed C1R-A03 [1]; CTL clone by limiting dilution, peptide-pulsed C1R-A03, listed as KOC1-A03-10-120): Potent IFN-gamma production; IFN-gamma production of CTL line, ELISA (peptide-pulsed C1R-A03 [1]; CTL line, target cells pulsed with the peptide vs not pulsed, C1R-A03): potent IFN-gamma production; peptide-specific CTL activity (IFN-gamma production), ELISPOT (peptide-pulsed C1R-A03 [2]): potent IFN-gamma production; specific CTL activity of CTL clone against target cells expressing KOC1 and HLA-A*0301 ([3]; COS7 transfected with both full-length KOC1 and HLA-A*0301): specific CTL activity; also recorded: potent CTL activities; specific CTL activity of CTL clone against control cells ([3]; COS7 transfected with either full-length KOC1 or HLA-A*0301): a significant specific CTL activity was not shown; also recorded: a significant specific CTL activity was not detected
